# Data reported in patent US9987256B2, “CFTR corrector for the treatment of genetic disorders affecting striated muscle” (UNIVERSITA' DEGLI STUDI DI PADOVA, priority 2012, dated 2018).
# Tests used:
# [1] = molecular target: T1, R98H mutant of alpha-sarcoglycan (Homo sapiens, UniProt Q16586, R98H); test: Western blot rescue of R98H mutant of alpha-sarcoglycan in HEK293 cell model; assay type: cell-based; conditions: HEK293, 24 hours; for alpha-sarcoglycan protein level (western blot, densitometry), rescue of R98H mutant: A 2 μM
# T1 construct: expressed in transfected cells; host or cells: HEK293
# T1 sequence (Q16586 24-387 R98H): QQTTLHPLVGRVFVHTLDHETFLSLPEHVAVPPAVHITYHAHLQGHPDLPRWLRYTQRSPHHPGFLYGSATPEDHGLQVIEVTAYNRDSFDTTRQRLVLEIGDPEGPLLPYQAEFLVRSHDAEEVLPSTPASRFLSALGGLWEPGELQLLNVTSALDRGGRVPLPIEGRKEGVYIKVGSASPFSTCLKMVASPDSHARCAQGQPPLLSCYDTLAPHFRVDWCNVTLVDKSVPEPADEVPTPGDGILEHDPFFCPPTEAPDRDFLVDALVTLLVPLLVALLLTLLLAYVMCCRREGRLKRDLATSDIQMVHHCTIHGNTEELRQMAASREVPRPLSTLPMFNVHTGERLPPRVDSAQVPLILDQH
# Description: HEK293 cells expressing different α-SG mutants have been treated with the Compounds A, B, C, D, E, F, H, I, Q, R, S and T according to protocols developed in CF studies [Loo and Clarke 2011; Becq et al 2011, Pedemonte et al 2005; Wang et al 2006]. Concentration and time-dependent recovery of treated mutants have been evaluated by Western blotting. The proteasome inhibitor MG132, at the concentration of 10 μM, or DMSO at 1‰ concentration, have been used as positive and negative control, respectively.
# In FIG. 1 the result obtained by treating cells expressing the R98H mutant of α-SG for 24 hours with Compound C 5 μM, Compound B 10 μM, Compound E 10 μM, Compound F 10 μM, Compound A 2 μM, Compound D 10 μM are shown. At the end of treatments, cells were lysed and total proteins resolved by SDS-PAGE. Western blotting has been performed by using α-SG specific antibody and β-actin specific antibody, used to normalize loaded proteins (in FIG. 1, upper panel, a representative experiment is shown). The expression of α-SG in different samples has been determined by densitometric analysis of the western blotting experiments and indicated as percentage of the protein present in cells expressing the R98H mutant treated with DMSO (negative control).
# In FIG. 4 the result obtained by treating cells expressing the R98H mutant of α-SG for 24 hours with either Compound H 15 μM, Compound I 10 μM, Compound T 15 μM, Compound A 2 μM, or DMSO at 1‰ concentration, used as negative control, are shown. Cells expressing the wild type form of α-sarcoglycan have been used for comparison. At the end of treatments, cells were lysed and total proteins resolved by SDS-PAGE. Western blotting has been performed by using α-SG specific antibody and β-actin specific antibody, used to normalize loaded proteins (in upper panel of FIG. 4, a representative experiment is shown). The expression of α-SG in different samples has been determined by densitometric analysis of the western blotting experiments and indicated as percentage of the protein present in cells expressing the wild type form of α-sarcoglycan. […] The compounds tested induced the recovery of the R98H mutant to levels that in some cases were even greater than those present in HEK cells expressing the wild type protein.
# (§1) In FIG. 5 the result obtained by treating cells expressing the R98H mutant of α-SG for 24 hours with either increasing concentration of Compound R (1, 2.5, 5 μM) or DMSO at 1‰ concentration, used as negative control, are shown. Cells expressing the wild type form of α-sarcoglycan have been used for comparison. At the end of treatments, cells were lysed and total proteins resolved by SDS-PAGE. Western blotting has been performed by using α-SG specific antibody and β-actin specific antibody, used to normalize loaded proteins (in upper panel of FIG. 5, a representative experiment is shown). The expression of α-SG in different samples has been determined by densitometric analysis of western blotting experiments and indicated as percentage of the protein present in cells expressing the wild type form of α-sarcoglycan.
# as §1, with “6” for “5”, “Q (5, 10 μM), increasing concentration of Compound S (10, 15” for “R (1, 2.5, 5”, “1% o” for “1‰”, “6,” for “5,”
# R164H mutant of SERCA1 = molecular target: T2, R164H mutant of SERCA1 (Bos taurus, UniProt Q0VCY0, R164H); test: Western blot rescue of R164H mutant of SERCA1 in HEK293 cells; assay type: cell-based, bovine; conditions: HEK293, 24 hours, relative to wild type
# T2 construct: expressed in transfected cells; host or cells: HEK 293
# Description: In FIG. 3 are reported the results obtained with HEK 293 cells expressing the R164H mutant of SERCA1 treated for 24 hours with either Compound C 5 μM, Compound B 10 μM, Compound E 10 μM, compound F 10 μM, Compound A 2 μM, compound D 10 μM, MG132 (proteasome inhibitor) 10 μM, used as positive control or the vehicle DMSO at 1‰ concentration, used as negative control. At the end of treatments, cells were lysed and total protein resolved by SDS-PAGE. Western blotting analysis has been performed by using SERCA1 specific antibody and β-actin specific antibody, to normalize loaded proteins. In the upper panel of FIG. 3 is reported a representative Western blotting experiment. The expression of SERCA1 in different samples has been determined by densitometric analysis and indicated as percentage of SERCA 1 content present in wild type expressing cells treated with DMSO.
# In FIG. 10 is reported the content of SERCA1 protein present in HEK 293 cells transfected with the R164H mutant of SERCA1 and treated for 24 hours with either Compound H 15 μM, Compound I 10 μM, compound Q 10 μM, Compound R 5 μM, Compound S 15 μM, Compound T 15 μM or the vehicle DMSO at 1‰ concentration, used as negative control. Cells expressing the wild type form of SERCA1 have also been used for comparison. At the end of treatments, cells were lysed and total protein resolved by SDS-PAGE. Western blotting analysis has been performed by using SERCA1 specific antibody and β-actin specific antibody, to normalize loaded proteins. The expression of SERCA1 in different samples has been determined by densitometric analysis and indicated as percentage of SERCA 1 content present in wild type expressing cells. The graph of FIG. 10 reports the average values (+/− standard error) of at least three independent experiments.
# [2] = FIG. 1, C 5 μM, B 10 μM, E 10 μM, F 10 μM, D 10 μM, relative to R98H cells treated with DMSO
# [3] = FIG. 4, H 15 μM, I 10 μM, T 15 μM, relative to cells expressing wild type
# [4] = FIG. 3, C 5 μM, B 10 μM, E 10 μM, F 10 μM, A 2 μM, D 10 μM
# [5] = FIG. 10, H 15 μM, I 10 μM, Q 10 μM, R 5 μM, S 15 μM, T 15 μM
# [6] = FIG. 6, Compound Q 5, 10 μM, Compound S 10, 15 μM
# [7] = FIG. 6, highest concentrations (Q 10 μM, S 15 μM)
# T2 sequence (Q0VCY0 whole entry R164H): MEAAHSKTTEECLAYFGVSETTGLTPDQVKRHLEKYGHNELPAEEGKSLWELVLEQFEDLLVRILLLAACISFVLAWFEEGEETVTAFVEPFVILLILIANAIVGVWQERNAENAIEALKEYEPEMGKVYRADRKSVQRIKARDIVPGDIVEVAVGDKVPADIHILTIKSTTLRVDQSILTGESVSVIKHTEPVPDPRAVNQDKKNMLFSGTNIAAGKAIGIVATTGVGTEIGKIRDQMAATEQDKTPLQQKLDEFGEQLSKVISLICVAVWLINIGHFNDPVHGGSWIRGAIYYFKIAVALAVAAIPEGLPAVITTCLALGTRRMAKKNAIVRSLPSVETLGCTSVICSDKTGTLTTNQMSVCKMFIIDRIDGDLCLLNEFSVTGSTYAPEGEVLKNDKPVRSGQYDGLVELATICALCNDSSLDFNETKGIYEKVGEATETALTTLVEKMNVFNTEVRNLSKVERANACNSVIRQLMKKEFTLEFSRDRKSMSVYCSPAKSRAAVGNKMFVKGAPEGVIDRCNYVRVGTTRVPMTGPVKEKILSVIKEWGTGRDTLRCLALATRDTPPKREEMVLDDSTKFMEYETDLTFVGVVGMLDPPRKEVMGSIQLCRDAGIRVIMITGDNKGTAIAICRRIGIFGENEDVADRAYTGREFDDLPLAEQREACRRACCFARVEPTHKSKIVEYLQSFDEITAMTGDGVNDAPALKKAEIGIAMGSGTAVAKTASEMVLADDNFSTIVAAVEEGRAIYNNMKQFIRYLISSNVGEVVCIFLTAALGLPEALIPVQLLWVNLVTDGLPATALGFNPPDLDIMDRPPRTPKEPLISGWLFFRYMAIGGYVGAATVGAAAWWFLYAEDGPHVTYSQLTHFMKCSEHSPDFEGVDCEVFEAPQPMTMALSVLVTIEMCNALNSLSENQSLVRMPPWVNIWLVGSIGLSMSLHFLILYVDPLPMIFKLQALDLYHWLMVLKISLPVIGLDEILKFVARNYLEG
structure (smiles),measurement,setting,value
"COc1ccc(Cl)cc1Nc1nc(-c2sc(NC(=O)C(C)(C)C)nc2C)cs1 [Compound A, N-(2-(5-chloro-2-methoxyphenylamino)-4′-methyl-4,5′-bithiazol-2′-yl)pivalamide]","alpha-sarcoglycan protein level (western blot, densitometry), rescue of R98H mutant",[1]; [2],promote the rescue
same,"alpha-sarcoglycan protein level (western blot, densitometry), rescue of R98H mutant",[1]; [3],promote the rescue
same,"SERCA1 protein level (western blot, densitometry), rescue of R164H mutant",R164H mutant of SERCA1; [4],promote the rescue
"COc1ccc(Cl)cc1Nc1nc(-c2sc(NC(=O)c3ccccc3)nc2C)cs1 [Compound E, N-[2-(5-Chloro-2-methoxy-phenylamino)-4′-methyl-[4,5′]bithiazolyl-2′-yl]-benzamide]","alpha-sarcoglycan protein level (western blot, densitometry), rescue of R98H mutant",[1]; [2],promote the rescue
same,"SERCA1 protein level (western blot, densitometry), rescue of R164H mutant",R164H mutant of SERCA1; [4],promote the rescue
"O=S(=O)(c1ccc(Cl)cc1)N1CCN(c2ccnc3cc(Cl)ccc23)CC1 [Compound F, 7-chloro-4-(4-(4-chlorophenylsulfonyl)piperazin-1-yl)quinoline]","alpha-sarcoglycan protein level (western blot, densitometry), rescue of R98H mutant",[1]; [2],promote the rescue
same,"SERCA1 protein level (western blot, densitometry), rescue of R164H mutant",R164H mutant of SERCA1; [4],promote the rescue
"Cc1cc(C)c2c(C)cc(Nc3ccccc3)nc2c1 [Compound H, 4,5,7-trimethyl-N-phenylquinolin-2-amine]","alpha-sarcoglycan protein level (western blot, densitometry), rescue of R98H mutant",[1]; [3],promote the rescue
same,"SERCA1 protein level (western blot, densitometry), rescue of R164H mutant",R164H mutant of SERCA1; [5],promote the rescue
"Cc1cc(Nc2ccc(Br)cc2)nc2ccccc12 [Compound I, N-(4-bromophenyl)-4-methylquinolin-2-amine]","alpha-sarcoglycan protein level (western blot, densitometry), rescue of R98H mutant",[1]; [3],promote the rescue
same,"SERCA1 protein level (western blot, densitometry), rescue of R164H mutant",R164H mutant of SERCA1; [5],promote the rescue
"CC(=O)c1cccc(Nc2nc(-c3sc(NC(=O)c4ccccc4)nc3C)cs2)c1 [Compound Q, N-(2-(3-acetylphenylamino)-4′-methyl-4,5′-bithiazol-2′-yl)-benzamide]","alpha-sarcoglycan protein level, dose dependence of R98H mutant recovery",[1]; [6],dose dependent recovery
same,alpha-sarcoglycan protein level of R98H mutant versus wild type protein,[1]; [7],reached the level of the wild type protein
same,"SERCA1 protein level (western blot, densitometry), rescue of R164H mutant",R164H mutant of SERCA1; [5],promote the rescue
"COc1ccccc1Nc1nc(-c2sc(NC(=O)c3ccccc3)nc2C)cs1 [Compound R, N-(2-(2-methoxyphenylamino)-4′-methyl-4,5′-bithiazol-2′-yl)-benzamide]","alpha-sarcoglycan protein level, dose dependence of R98H mutant recovery","[1]; FIG. 5, Compound R 1, 2.5, 5 μM",dose dependent recovery
same,alpha-sarcoglycan protein level of R98H mutant versus wild type protein,"[1]; FIG. 5, highest concentration (5 μM)",reached the level of the wild type protein
same,"SERCA1 protein level (western blot, densitometry), rescue of R164H mutant",R164H mutant of SERCA1; [5],promote the rescue
"C=Cc1ccc(-c2csc(Nc3ccccc3)n2)cc1 [Compound S, N-phenyl-4-(4-vinylphenyl)thiazol-2-amine]","alpha-sarcoglycan protein level, dose dependence of R98H mutant recovery",[1]; [6],dose dependent recovery
same,alpha-sarcoglycan protein level of R98H mutant versus wild type protein,[1]; [7],reached the level of the wild type protein
same,"SERCA1 protein level (western blot, densitometry), rescue of R164H mutant",R164H mutant of SERCA1; [5],promote the rescue
"COc1ccc2nc(Nc3nc(=O)c(C)c(C)[nH]3)nc(C)c2c1 [Compound T, 2-(6-methoxy-4-methylquinazolin-2-ylamino)-5,6-dimethylpyrimidin-4(1H)-one]","alpha-sarcoglycan protein level (western blot, densitometry), rescue of R98H mutant",[1]; [3],promote the rescue
same,"SERCA1 protein level (western blot, densitometry), rescue of R164H mutant",R164H mutant of SERCA1; [5],promote the rescue
